Structures can show the parent of a compound that is named as a salt.

For data set [1] the following is noted: background; cited from earlier work.
Another data set deals with AcCh receptors. To be noted: background; cited from earlier work.
For data set [2] the following is noted: peripheral administration; background; cited from earlier work.
For data set [3] the following is noted: peripheral administration; background; cited from earlier work. This is another data set of the same source.
For data set [4], the target named is central cholinergic receptors. Nature of the data set: 3H-oxotremorine-M (Oxo-M) displacement from rat brain homogenates. To be noted: displacement of 3H-oxotremorine-M, pH 7.4, 40 min, 30° C. The data set is classed as binding. The procedure:
(§1) Affinity to central cholinergic receptors in vitro was measured as the ability of the compounds to displace ^3 H-oxotremorine-M (Oxo-M) from rat brain homogenates, while affinity to central muscarinic M-1-receptors in vitro was measured as the ability of the compounds to displace ^3 H-pirenzepin (Pz) from rat brain homogenates.
^3 H-oxotremorine M binding
was performed essentially as described by Birdsdall et al., 1980. Briefly, rat brains were homogenized in 100 vol (w/v) 10 mM Na,K-phosphate buffer (pH 7.4) and aliquots incubated with ^3 H-oxotremorine M (84.9 Ci/m-mol, NEN) alone or in the presence of test compound in a total volume of 1.5 ml for 40 min. at 30° C. The reaction was stopped by adding 5 ml cold buffer and filtered through Whatman GF/B filters soaked previously in 0.1% polyethylenimin (Sigma) for minimum 30 min. The filters were washed once with the same volume of buffer, transferred to scintillation vials and extracted in scintillation fluid (Pico-fluor 15, Packard) for at least two hours before counted in a liquid scintillation spectrometer (Beckman LS 1800). Non-specific binding was estimated at 10 μM atropine and all estimations made in triplicate. At least two displacement curves were made for each compound tested.
Birdsdall N. J. M., Hulme E. C., and Burgen A. S. V. (1980). "The Character of Muscarinic Receptors in Different Regions of the Rat Brain". Proc. Roy. […] London (Series B) 207, 1.

The target in data set [5] is T1, central muscarinic M-1-receptors (Rattus norvegicus, UniProt P08482).
T1 sequence (P08482 1-460): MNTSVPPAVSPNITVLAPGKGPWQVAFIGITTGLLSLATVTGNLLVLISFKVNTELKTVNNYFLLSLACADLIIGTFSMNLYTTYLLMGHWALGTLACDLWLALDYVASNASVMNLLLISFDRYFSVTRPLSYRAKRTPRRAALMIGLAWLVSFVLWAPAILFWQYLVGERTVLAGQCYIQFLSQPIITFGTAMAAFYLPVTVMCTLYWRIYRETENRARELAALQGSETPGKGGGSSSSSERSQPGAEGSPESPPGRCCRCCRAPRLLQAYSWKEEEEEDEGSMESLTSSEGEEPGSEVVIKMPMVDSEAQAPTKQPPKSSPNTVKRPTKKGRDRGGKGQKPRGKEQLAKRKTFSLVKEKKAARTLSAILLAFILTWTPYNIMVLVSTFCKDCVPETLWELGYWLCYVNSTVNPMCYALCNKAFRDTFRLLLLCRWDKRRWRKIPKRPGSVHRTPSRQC
The data set is described as follows: 3H-pirenzepine (Pz) displacement from rat brain homogenates. The class given is binding. To be noted: displacement of 1.0 nM 3H-pirenzepine, rat brain homogenates, 60 min, 25° C; read-out: Pz, IC50. The procedure: as §1
was performed essentially as described by Watson et al., 1983, the conditions being very much the same as for ^3 H-oxotremorine binding, except that aliquots were incubated with 1.0 nM ^3 H-pirenzepine for 60 min. at 25° C. and that the reaction was stopped by direct filtration followed by 3 washes with 4 ml buffer.
Watson, M., Yamamura, H. I., and Roeske, W. R. (1983). "A unique regulatory profile and regional distribution of ^3 H-pirenzepin binding in the rat provide evidence for distinct M1 and M2 muscarinic receptor subtypes". Life Sci. 32 (1983) 3001-3011.

For `COC(=O)C1=CCCN(C)C1` [Arecoline, methyl 1-methyl-1,2,5,6-tetrahydropyridine-3-carboxylate], in data set [1], the “hydrolysis of ester group in vivo” value was “very rapidly hydrolyzed in vivo”. Besides, the AcCh agonist activity entry in the data set with AcCh receptors is given as “AcCh agonist”. The central effects result in data set [2] is “very weak and frequently negligible central effects”. Besides, the “penetration of blood-brain barrier” value in data set [3] is “capable of penetrating the BBB”.

On to `COc1cnc(C2=CCCNC2)o1` [Compound 81, 5-Methoxy-2-(1,2,5,6-tetrahydro-3-pyridyl)-oxazole, 1.25 fumarate], for which the results for the IC50 in data set [4] and in data set [5] were 220 nM and 4200 nM, respectively.

Consider `Cc1coc(C2=CCCN(C)C2)n1` [Compound 84, 4-Methyl-2-(1-methyl-1,2,5,6-tetrahydro-3-pyridyl)-oxazole, oxalate], for which the half-maximal inhibitory concentration (IC50) – broadly, the concentration that gives 50% inhibition – in data set [4] turned out to be 28 nM; in data set [5], 58 nM.

Take `Cc1coc(C2=CCCNC2)n1` [Compound 85, 4-Methyl-2-(1,2,5,6-tetrahydro-3-pyridyl)-oxazole, fumarate]: the IC50 in data set [4] is 7.5 nM; in data set [5], 1400 nM.

For the compound `CN1CCC=C(C2=NC(C)(C)CO2)C1` [Compound 87, 4,4-Dimethyl-2-1-methyl-1,2,5,6-tetrahydro-3-pyridyl)-oxazoline, fumarate], the half-maximal inhibitory concentration (IC50) in data set [4] was 130 nM; in data set [5], 400 nM.

On to `Cc1cnc(C2=CCCN(C)C2)s1` [Compound 90, 5-Methyl-2-(1-methyl-1,2,5,6-tetrahydro-3-pyridyl)-thiazole, hemifumarate], for which the IC50 turned out to be 180 nM in data set [4] and 420 nM in data set [5].

Turning to `Cc1cnc(C2=CCCNC2)s1` [Compound 91, 5-Methyl-2-(1,2,5,6-tetrahydro-3-pyridyl)-thiazole, fumarate], the half-maximal inhibitory concentration (IC50) worked out at 360 nM in data set [4] and 1000 nM in data set [5].

On to `CSc1cnc(C2=CCCN(C)C2)s1` [Compound 93, 5-Methylthio-2-(1-methyl-1,2,5,6-tetrahydro-3-pyridyl)-thiazole, fumarate], for which the results for the IC50 in data set [4] and in data set [5] were 18 nM and 130 nM, respectively.

As to `Cc1cc(C2=CCCN(C)C2)nn1C` [Compound 95, 1,5-Dimethyl-3-(1-methyl-1,2,5,6-tetrahydro-3-pyridyl)-pyrazole, dihydrochloride], the IC50 in data set [4] is 350 nM; in data set [5], 180 nM.

Values taken from patent publication USRE36374E, “1,2,3-triazole and tetrazole substituted piperidine or tetrahydropyridine compounds useful as acetylcholine agonists” (priority 1987, dated 1999).
